Legend:
Anti-BSA antiserum = assay: Interaction of cobalt-labelled BSA conjugate with anti-BSA antibodies, supernatant Co by AAS; format: binding
Procedure: (1) Anti-BSA antiserum (100 μl) was added to each of four tubes numbered 1 to 4. The same volume (100 μl) of 0.01 M phosphate buffer was added to each of additional four tubes, numbered 5 to 8.
(2) A fixed volume (100 μl) of four dilutions of BSA-Cobalt labelled conjugate, containing 0.23, 0.47, 0.94 and 1.88 μg Co/ml (or 0.8, 1.6, 3.1 and 6.2 μg BSA conjugate/100 μl of sample) added to the tubes 1 to 4 respectively and similarly to tubes 5 to 8 respectively.
(3) The solutions were mixed on a Vortex, allowed to incubate for 1 hr. at 37° C. and then for 48 hrs. at 4° C.
(4) The tubes were then centrifuged for 30 min. at 4° C.
(5) The supernatant was analyzed for Co by atomic absorption.
The readings obtained from tubes 5 through 8 served as calibrating controls. The readings from tubes 1 through 4 then indicated the amount of free cobalt-labelled BSA left in solution (by difference the "bound" BSA antigen could be determined). The atomic absorption measurements were interpolated into the calibration curve and gave 0.00, 0.06, 0.59 and 1.25 μg Co/ml of "free" hapten, equivalent to a concentration of 0,0.2,2.0 and 4.3 μg BSA conjugate/100 μl of original sample in tubes 1,2,3 and 4 respectively.

[1] = test system: sepharose-bound anti-E2 (HS)-COOH antibodies; assay: Inhibition and cross-reaction experiments with E2(HS)-CONH-CH2-Fc; format: binding, rabbit
Procedure: A fixed volume (30 μl) of a solution of iron-labelled estradiol hemisuccinate, E2 (HS)-CONH-CH2 Fc, of suitable concentration (selected from the results obtained in Step (ii) above) was mixed with a constant volume (30 μl) of solutions of various concentrations of unlabelled hapten, estradiol hemisuccinate (or estrone-17-(0-Carboxymethyl)oxime, E1 (Ox)-COOH). This mixture was added to a constant volume (60 μl) of the sepharose-bound antibodies, Vortex-mixed for 1 min. and allowed to incubate at room temperature for 30 min. The Vortex-mixing was repeated at intervals of 10 min. The assay mixture was then centrifuged for 1 min. at 3000 r.p.m. Aliquots (30 μl) were extracted with an Eppendorf pipette and injected into the graphite tube of the AA instrument. The following controls were taken through the same procedure to determine specificity: (a) a suspension of sepharose-bound antibodies without addition of metal-labelled hapten; (b) the mixtures of metal-labelled and non-labelled haptens, without addition of the sepharose-bound antibodies; (c) the mixture of metal-labelled and non-labelled haptens with addition of sepharose-bound γ-globulins of normal rabbit serum.

With “BSA-Cobalt labelled conjugate: Bovine serum albumin labelled with carboxycobalticenium N-succinimide ester, about 35 haptens per mole” the “"free" hapten in supernatant” value (Anti-BSA antiserum; tube 1: conjugate 0.23 μg Co/ml, 100 μl + 100 μl antiserum, 1 hr 37° C., 48 hrs 4° C.) was 0.00 μg Co/ml, the “"free" hapten in supernatant” value (Anti-BSA antiserum; tube 2: conjugate 0.47 μg Co/ml) was 0.06 μg Co/ml and the “"free" hapten in supernatant” value (Anti-BSA antiserum; tube 3: conjugate 0.94 μg Co/ml) was 0.59 μg Co/ml. For the same compound, the “free conjugate, equivalent concentration” value (Anti-BSA antiserum; tube 4: 6.2 μg BSA conjugate/100 μl added) was 4.3 μg BSA conjugate/100 μl of original sample and the “"free" hapten in supernatant” value (Anti-BSA antiserum; tube 4: conjugate 1.88 μg Co/ml) was 1.25 μg Co/ml.

`C[C@]12CC[C@@H]3c4ccc(O)cc4CC[C@H]3[C@@H]1CC[C@@H]2OC(=O)CCC(=O)O` [E2 (HS)--COOH, Estradiol-17β-hemisuccinate] was tested, and the “Inhibition of E2 (HS)--CONH--CH2 Fc (27.5 × 10^-7 M)” value ([1]; unlabelled hapten 3.6 × 10^-7 M) was 8.5%, the “Inhibition of E2 (HS)--CONH--CH2 Fc (27.5 × 10^-7 M)” value ([1]; unlabelled hapten 7.2 × 10^-7 M) was 17.5% and the “Inhibition of E2 (HS)--CONH--CH2 Fc (27.5 × 10^-7 M)” value ([1]; unlabelled hapten 15.0 × 10^-7 M (E2 column)) was 21.5%. The “Inhibition of E2 (HS)--CONH--CH2 Fc (27.5 × 10^-7 M)” value ([1]; unlabelled hapten 36.0 × 10^-7 M) was 43.5%, the “Inhibition of E2 (HS)--CONH--CH2 Fc (27.5 × 10^-7 M)” value ([1]; unlabelled hapten 72.0 × 10^-7 M) was 48.0% and the “Inhibition of E2 (HS)--CONH--CH2 Fc (27.5 × 10^-7 M)” value ([1]; unlabelled hapten 150.0 × 10^-7 M (E2 column)) was 56.0%. The “Inhibition of E2 (HS)--CONH--CH2 Fc (27.5 × 10^-7 M)” value ([1]; unlabelled hapten 300.0 × 10^-7 M) was 63.5%.

In the case of `C[C@]12CC[C@@H]3c4ccc(O)cc4CC[C@H]3[C@@H]1CCC2=NOCC(=O)O` [E1 (OX)--COOH, Extrone oxime-0-carboxymethyl], the “Inhibition of E2 (HS)--CONH--CH2 Fc (27.5 × 10^-7 M), cross-reaction” value (“Inhibition of E2 … cross-reaction” below) ([1]; unlabelled hapten 3.75 × 10^-7 M) is reported as 0.5%, the “Inhibition of E2 … cross-reaction” value ([1]; unlabelled hapten 7.5 × 10^-7 M) is reported as 3.0% and the “Inhibition of E2 … cross-reaction” value ([1]; unlabelled hapten 15.0 × 10^-7 M (E1 column)) is reported as 6.5%. For the same compound, the “Inhibition of E2 … cross-reaction” value ([1]; unlabelled hapten 37.5 × 10^-7 M) was 9.5%, the “Inhibition of E2 … cross-reaction” value ([1]; unlabelled hapten 75.0 × 10^-7 M) was 25.5% and the “Inhibition of E2 … cross-reaction” value ([1]; unlabelled hapten 150.0 × 10^-7 M (E1 column)) was 50.5%.

From patent US4205952A, “Specific binding assay method and reagent means” (Technion Research & Development Foundation Ltd., priority 1976, dated 1980)
